Target: T1, 5-HT1A receptor (Rattus norvegicus, UniProt P19327)
T1 construct: rat hippocampal membrane homogenate; from tissue; host or cells: rat hippocampus, membrane homogenate
T1 sequence (P19327 1-422): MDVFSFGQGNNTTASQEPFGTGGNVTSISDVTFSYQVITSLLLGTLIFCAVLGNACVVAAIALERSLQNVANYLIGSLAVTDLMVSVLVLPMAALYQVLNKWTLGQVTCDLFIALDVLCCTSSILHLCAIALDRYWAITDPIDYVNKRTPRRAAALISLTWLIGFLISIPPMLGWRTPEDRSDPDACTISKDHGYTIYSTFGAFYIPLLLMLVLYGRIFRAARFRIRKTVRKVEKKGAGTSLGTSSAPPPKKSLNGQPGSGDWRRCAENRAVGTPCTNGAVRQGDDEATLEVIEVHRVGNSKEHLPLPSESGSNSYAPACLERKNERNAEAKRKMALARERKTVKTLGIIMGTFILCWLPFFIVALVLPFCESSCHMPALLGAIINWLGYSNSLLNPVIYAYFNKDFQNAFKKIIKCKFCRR
Assay: 5-HT1A receptor binding activity in rat hippocampal membrane homogenate
Settings: method of Alexander and Wood
Description: The compounds of the invention are tested for 5-HT1A receptor binding activity in rat hippocampal membrane homogenate by the method of B. S. Alexander and M. D. Wood, J Pharm Pharmacol, 1988, 40, 888-891.

**Q.** With COc1ccccc1N1CCN(CC(c2ccccn2)C(O)c2ccccc2)CC1 (stereo not shown) [Example 2] as the compound, how does the IC50 read?
**A.** The IC50 was 20 nM.
